Data on three compounds can be found in patent US20030100590A1, “3-(4,5-dihydroisoxazol-5-yl)benzoylpyrazole” (priority 1999, published 2003).

The test system of one series is spring wheat. Kind of series: greenhouse post-emergence test, crop plant compatibility. It counts as in vivo, Tritricum aestivum. Conditions: application rate 125 or 62.5 g/ha a.s., 2 to 4 weeks. The protocol:
(§1) The seeds of the test plants were sown separately for each species. For the post-emergence treatment, the test plants were grown to a plant height of from 3 to 15 cm, depending on the plant habit, and only then treated with the active ingredients which had been suspended or emulsified in water. To this end, the test plants were either sown directly and grown in the same containers, or they were first grown separately as seedlings and transplanted into the test containers a few days prior to treatment. The rate of application for the post-emergence treatment was 125 or 62.5 g/ha a.s. (active substance). Depending on the species, the plants were kept at from 10 to 25° C. and 20 to 35° C., respectively. The test period extended over 2 to 4 weeks. During this time, the plants were tended, and their response to the individual treatments was evaluated. Evaluation was carried out using a scale of from 0 to 100. 100 means no emergence of the plants, or complete destruction of at least the aerial parts, and 0 means no damage or normal course of growth. The plants used in the greenhouse experiments belonged to the following species: [table]

Series [1] deals with Avena fatua, Bromus inermis, Matricaria chamomilla, Matricaria inodora. Kind of series: greenhouse post-emergence herbicidal test, harmful plants. In kind it is in vivo. Conditions: application rate 125 or 62.5 g/ha a.s., 2 to 4 weeks. The procedure: as §1

The structures appear in SMILES notation. A value given as a limit tells only on which side of the number the result lay.

As to `CC1=NOC(c2c(S(C)(=O)=O)ccc(C(=O)c3cnn(C4CC4)c3O)c2Cl)C1` (stereo not shown) [Compound 2.36, 4-[2-Chloro-3-(3-methyl-4 , 5-dihydroisoxazol-5-yl)-4-methyl-sulfonylbenzoyl]-5-hydroxy-1-cyclopropyl-1H-pyrazole], the melting point (commonly the temperature of the solid-liquid transition) was over 220 °C. Take `Cc1cc(-c2c(S(C)(=O)=O)ccc(C(=O)c3cnn(C)c3O)c2C)on1` [A]: the “compatibility with / damage in the crop plant spring wheat” value in the series on spring wheat is listed as “caused damage”. Besides, the “herbicidal activity against the abovementioned harmful plants” value in series [1] is recorded as “weaker herbicidal activity”.

The compound `CC1=NOC(c2c(S(C)(=O)=O)ccc(C(=O)c3cnn(C)c3O)c2Cl)C1` (stereo not shown) [Compound 2.8, 4-[2-Chloro-3-(3-methyl-4,5-dihydroisoxazol-5-yl)-4-methyl-sulfonylbenzoyl]-5-hydroxy-1-methyl-1H-pyrazole] gave a melting point of over 215 °C.
